The test concerns the target Cathepsin S (Homo sapiens, UniProt P25774). The test can be described thus: Cathepsin S inhibition, fluorogenic peptide substrate kinetic assay. Conditions: Table II; Cathepsin S inhibition constant, pH5.5; read-out: Ki Cat. S. It is filed as biochemical. The method in brief:
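Ki values derive from apparent constants fitted to progress curves, corrected for competition with substrate via [S] and Km. Kinetics were monitored at 380 nm excitation/450 nm emission, after substrate addition (Ac-HPVK-ACC, 50 μM final) to start the reaction.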

pKi: −log10 of the molar value. Where only a bound is given, the exact number is not on record here.

Sequence of Cathepsin S (P25774 115-331, species assumed): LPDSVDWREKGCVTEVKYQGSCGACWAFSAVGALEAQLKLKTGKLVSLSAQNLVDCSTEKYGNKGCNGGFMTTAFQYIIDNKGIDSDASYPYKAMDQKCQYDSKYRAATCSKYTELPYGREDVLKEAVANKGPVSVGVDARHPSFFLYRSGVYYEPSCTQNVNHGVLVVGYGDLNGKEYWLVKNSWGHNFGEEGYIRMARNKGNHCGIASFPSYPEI

By pKi is commonly meant the negative decadic logarithm of the Ki, by convention in mol/L. Consider `Cc1cccc(C(=O)N[C@@H](CC(C)(C)C)C(=O)NCCN2CCc3cc(F)ccc32)c1` [Compound 203, N-((S)-1-(2-(5-fluoroindolin-1-yl)ethylcarbamoyl)-3,3-dimethylbutyl)-3-methylbenzamide], for which the pKi was greater than 7.00.
Regarding `COc1ccc(NCC(C)NC(=O)C(CCC2CCCCC2)NC(=O)c2cc3ccccc3[nH]2)cc1` (mixture of isomers) [Compound 24], the pKi is greater than 6.00.
The result for `C[C@@H](CNc1cccc(F)c1)NC(=O)[C@H](CC1CCCCC1)NC(=O)c1ccc(-c2cccc(F)c2)o1` [Compound 99, 5-(3-Fluoro-phenyl)-furan-2-carboxylic acid {2-cyclohexyl-1-(S)-[2-(3-fluoro-phenylamino)-1-(S)-methyl-ethylcarbamoyl]-ethyl}-amide] reads greater than 7.00.
The value for `C[C@@H](CN1CC(C)(C)c2cc(F)ccc21)NC(=O)[C@H](CC1CCCCC1)NC(=O)[C@H]1CCCO1` [Compound 273, Tetrahydrofuran-2-(R)-carboxylic acid {2-cyclohexyl-1-(S)-[2-(5-fluoro-3,3-dimethyl-2,3-dihydro-indol-1-yl)-1-(S)-methyl-ethylcarbamoyl]-ethyl}-amide] was greater than 7.00; that for `C[C@@H](CNc1ccc(C#N)cc1)NC(=O)[C@H](CC1CCCCC1)NC(=O)c1ccc(-c2cccc(F)c2)o1` [Compound 93, 5-(3-Fluoro-phenyl)-furan-2-carboxylic acid {1-(S)-[2-(4-cyano-phenylamino)-1-(S)-methyl-ethylcarbamoyl]-2-cyclohexyl-ethyl}-amide] was greater than 6.00.
Regarding `COc1ccc(S(=O)(=O)N[C@@H](CC2CCCCC2)C(=O)NCCN2CCc3cc(F)ccc32)cc1` [Compound 239, (S)-3-Cyclohexyl-N-[2-(5-fluoro-2,3-dihydro-indol-1-yl)-ethyl]-2-(4-methoxy-benzenesulfonylamino)-propionamide], the pKi is greater than 6.00.
With `CC(C)(C)C[C@H](NC(=O)c1ccc(-c2cccc(C(F)(F)F)c2)o1)C(=O)NCCN1CCc2cc(F)ccc21` [Compound 202, N-((S)-1-(2-(5-fluoroindolin-1-yl)ethylcarbamoyl)-3,3-dimethylbutyl)-5-(3-(trifluoromethyl)phenyl)furan-2-carboxamide], the pKi was greater than 7.00.
The value for `O=C(Nc1ccc(-c2ccccc2)s1)N[C@@H](CC1CCCCC1)C(=O)NCCN1CCc2cc(F)ccc21` [Compound 219, (S)-3-Cyclohexyl-N-[2-(5-fluoro-2,3-dihydro-indol-1-yl)-ethyl]-2-[3-(5-phenyl-thiophen-2-yl)-ureido]-propionamide] was greater than 5.00.
The result for `COc1cccc(C(=O)N[C@@H](CC(C)(C)C)C(=O)N[C@@H](CC(=O)OC(C)(C)C)CN2CCc3cc(F)ccc32)c1` [Compound 160, 4-(5-Fluoro-2,3-dihydro-indol-1-yl)-3-(S)-[2-(S)-(3-methoxy-benzoylamino)-4,4-dimethyl-pentanoylamino]-butyric acid tert-butyl ester] reads greater than 7.00; that for `O=C(N[C@@H](CC1CCCCC1)C(=O)NCCN1CCc2cc(F)ccc21)C1CC(=O)N(Cc2ccccc2)C1` (stereo partly drawn) [Compound 65, 1-Benzyl-5-oxo-pyrrolidine-3-carboxylic acid (S)-{2-cyclohexyl-1-[2-(5-fluoro-2,3-dihydro-indol-1-yl)-ethylcarbamoyl]-ethyl}-amide], greater than 6.00; that for `O=C(NCCN1CCc2cc(F)ccc21)[C@H](CC1CCCCC1)NS(=O)(=O)c1scc(Br)c1Cl` [Compound 224, (S)-2-(4-Bromo-3-chloro-thiophene-2-sulfonylamino)-3-cyclohexyl-N-[2-(5-fluoro-2,3-dihydro-indol-1-yl)-ethyl]-propionamide], greater than 6.00.
The result for `C[C@@H](CNc1ccc(OC(F)(F)F)cc1)NC(=O)[C@H](CC1CCCCC1)NC(=O)c1cnn(-c2ccc(F)cc2)c1` [Compound 142, 1-(4-Fluoro-phenyl)-1H-pyrazole-4-carboxylic acid {2-cyclohexyl-1-(S)-[1-(S)-methyl-2-(4-trifluoromethoxy-phenylamino)-ethylcarbamoyl]-ethyl}-amide] reads greater than 7.00; that for `C[C@@H](CNc1cccc(S(C)(=O)=O)c1)NC(=O)[C@H](CC(C)(C)C)NC(=O)c1ccc(-c2cccc(F)c2)o1` [Compound 130, 5-(3-Fluoro-phenyl)-furan-2-carboxylic acid {1-(S)-[2-(3-methanesulfonyl-phenylamino)-1-(S)-methyl-ethylcarbamoyl]-3,3-dimethyl-butyl}-amide], greater than 7.00; that for `CC(C)(C)C[C@H](NC(=O)OCc1ccccc1)C(=O)N[C@@H](CC(=O)OC(C)(C)C)CN1CCc2cc(F)ccc21` [Compound 158, 3-(S)-(2-(S)-Benzyloxycarbonylamino-4,4-dimethyl-pentanoylamino)-4-(5-fluoro-2,3-dihydro-indol-1-yl)-butyric acid tert-butyl ester], greater than 6.00.
In the case of `C[C@@H](CNc1ccc(F)cc1)NC(=O)[C@H](CC1CCCCC1)NC(=O)c1ccc(-c2cccc(F)c2)o1` [Compound 126, 5-(3-Fluoro-phenyl)-furan-2-carboxylic acid {2-cyclohexyl-1-(S)-[2-(4-fluoro-phenylamino)-1-(S)-methyl-ethylcarbamoyl]-ethyl}-amide], the pKi was greater than 7.00.
Take `C[C@@H](CN1CCc2cc(F)ccc21)NC(=O)[C@H](CC(C)(C)C)NC(=O)c1ccnnc1` [Compound 178, Pyridazine-4-carboxylic acid {1-(S)-[2-(5-fluoro-2,3-dihydro-indol-1-yl)-1-(S)-methyl-ethylcarbamoyl]-3,3-dimethyl-butyl}-amide]: the pKi is greater than 7.00.
Take `Cc1nc(C)c(S(=O)(=O)N[C@@H](CC2CCCCC2)C(=O)N[C@@H](C)CN2CCc3cc(F)ccc32)s1` [Compound 210, (S,S)-3-Cyclohexyl-2-(2,4-dimethyl-thiazole-5-sulfonylamino)-N-[2-(5-fluoro-2,3-dihydro-indol-1-yl)-1-methyl-ethyl]-propionamide]: the pKi was greater than 7.00.
The result for `O=C(N[C@@H](CC1CCCCC1)C(=O)NCCN1CCc2cc(F)ccc21)C1CC1` [Compound 14, Cyclopropanecarboxylic acid (S)-{2-cyclohexyl-1-[2-(5-fluoro-2,3-dihydro-indol-1-yl)-ethylcarbamoyl]-ethyl}-amide] reads greater than 7.00.
The result for `C[C@@H](CN1CCc2cc(F)ccc21)NC(=O)[C@H](CC1CCCCC1)NS(=O)(=O)c1csc(-c2cnco2)c1` [Compound 250, (S,S)-3-Cyclohexyl-N-[2-(5-fluoro-2,3-dihydro-indol-1-yl)-1-methyl-ethyl]-2-(5-oxazol-5-yl-thiophene-3-sulfonylamino)-propionamide] reads greater than 7.00.
The result for `COc1cccc(C(=O)N[C@@H](CC2CCCCC2)C(=O)N[C@@H](CC(=O)OCc2ccccc2)CN2CCc3cc(F)ccc32)c1` [Compound 161, 3-(S)-[3-Cyclohexyl-2-(S)-(3-methoxy-benzoylamino)-propionylamino]-4-(5-fluoro-2,3-dihydro-indol-1-yl)-butyric acid benzyl ester] reads greater than 7.00.
As to `C[C@@H](CNc1ccc(OC(F)(F)F)cc1)NC(=O)[C@H](CC1CCCCC1)NC(=O)c1ccc(-c2ccc[n+]([O-])c2)o1` [Compound 144, 5-(1-Oxy-pyridin-3-yl)-furan-2-carboxylic acid {2-cyclohexyl-1-(S)-[1-(S)-methyl-2-(4-trifluoromethoxy-phenylamino)-ethylcarbamoyl]-ethyl}-amide], the pKi was greater than 7.00.
Consider `C[C@@H](CNc1ccccc1S(C)(=O)=O)NC(=O)[C@H](CC1CCCCC1)NC(=O)c1ccc(-c2cccc(F)c2)o1` [Compound 116, 5-(3-Fluoro-phenyl)-furan-2-carboxylic acid {2-cyclohexyl-1-(S)-[2-(2-methanesulfonyl-phenylamino)-1-(S)-methyl-ethylcarbamoyl]-ethyl}-amide], for which the pKi is greater than 7.00.
The value for “(S)-3-Cyclohexyl-N-[2-(5-fluoro-2,3-dihydro-indol-1-yl)-ethyl]-2-(5-methyl-1-phenyl-1H-pyrazole-4-sulfonylamino)-propionamide [Compound 222]” was greater than 6.00.
The result for `O=C(NCCN1CCc2cc(F)ccc21)[C@H](CC1CCCCC1)NS(=O)(=O)c1ccc(Oc2ccc(F)cc2)cc1` [Compound 236, (S)-3-Cyclohexyl-N-[2-(5-fluoro-2,3-dihydro-indol-1-yl)-ethyl]-2-[4-(4-fluoro-phenoxy)-benzenesulfonylamino]-propionamide] reads greater than 6.00; that for `Cc1cc(NC[C@H](C)NC(=O)[C@H](CC2CCCCC2)NC(=O)c2ccc(-c3cccc(F)c3)o2)sn1` [Compound 267, 5-(3-Fluoro-phenyl)-furan-2-carboxylic acid {2-cyclohexyl-1-(S)-[1-(S)-methyl-2-(3-methyl-isothiazol-5-ylamino)-ethylcarbamoyl]-ethyl}-amide], greater than 6.00.
The result for `Cc1cccc(C(=O)N[C@@H](CC(C)C)C(=O)N[C@@H](CCC(=O)OCc2ccccc2)CN2CCc3cc(F)ccc32)c1` [Compound 42, (S,S)-5-(5-Fluoro-2,3-dihydro-indol-1-yl)-4-[4-methyl-2-(3-methyl-benzoylamino)-pentanoylamino]-pentanoic acid benzyl ester] reads greater than 7.00; that for `C[C@@H](CNc1ccc2c(c1)C(=O)OC2)NC(=O)[C@H](CC1CCCCC1)NC(=O)c1ccc(-c2cccc(F)c2)o1` [Compound 137, 5-(3-Fluoro-phenyl)-furan-2-carboxylic acid {2-cyclohexyl-1-(S)-[1-(S)-methyl-2-(3-oxo-1,3-dihydro-isobenzofuran-5-ylamino)-ethylcarbamoyl]-ethyl}-amide], greater than 7.00.
For the compound `O=C(NCCN1CCc2cc(F)ccc21)[C@H](CC1CCCCC1)NS(=O)(=O)Cc1ccccc1` [Compound 242, (S)-3-Cyclohexyl-N-[2-(5-fluoro-2,3-dihydro-indol-1-yl)-ethyl]-2-phenylmethanesulfonylamino-propionamide], the pKi is greater than 5.00.

These data come from patent US20040248887A1, “Inhibitors of cathepsin S” (IRM LLC, priority 2003, published 2004).
